For one experiment, the system named is rat model of ACD. Put plainly: Rat model of ACD (PG-PS), Experimental Series 1. The class given is in vivo. The conditions noted are these: anemic rats, 60 mg/kg PO. The text has this: Anemia of chronic disease (ACD) is associated with various inflammatory conditions, including arthritis, neoplastic disease, and other disorders associated with chronic inflammation. A rat model of ACD was used to examine the effects of HIF stabilization using methods and compounds of the present invention on treating anemia associated with chronic disease. In this animal model, ACD is induced in rats by peptidoglycan-polysaccharide polymers. (See, e.g., Sartor et al. (1989) Infection and Immunity 57:1177-1185.) In this model, animals develop severe, acute anemia in the initial stages, followed by moderately severe chronic microcytic anemia in later stages.
Female Lewis rats of approximately 160 grams were challenged with PG-PS 10S (Lee Laboratories, 15 μg/gm body weight, intra-peritoneal). PG-PS 10S contains purified peptidoglycan-polysaccharide polymers isolated from the cell wall of Streptococcus pyogenes, Group A, D58 strain. Arthritis and anemia were allowed to develop for 35 days. On day 35, blood samples (approximately 400 μl) were taken from the tail vein under general anesthesia (Isoflurane) for CBC and reticulocyte counts (performed by Quality Clinical Labs). Animals with a spun hematocrit level at or above 45% were considered non-anemic and were removed from the study.
On day 35 following PG-PS injection, anemic animals received vehicle alone or were treated with compound A (60 mg/kg, PO) for two consecutive days per week for two weeks. Automated complete blood counts (CBC) were measured on day 35 (see above), 39, 42, and 49; serum iron levels were measured on day 49.

The test system of experiment [1] is Transferrin Receptor (TFR2). Briefly: Microarray gene expression in Hep3B cells: transferrin receptor 2. The settings on record: 2 μM. It is filed as cell-based, human. On the procedure: Hep3B cells (ATCC No. HB-8064) were grown in DMEM containing 8% fetal bovine serum. Hep3B cells were seeded into 6-well culture dishes at ˜500,000 cells per well. After 8 hours, the media was changed to DMEM containing 0.5% fetal bovine serum and the cells were incubated for an additional 16 hours. Compound B or compound D was added to the cells (2 μM final concentration) and the cells were incubated for various times. Control cells (no compound treatment, addition of DMSO alone) were harvested at 0, 6 and 48 hours. Harvested cells were assessed for cell viability (GUAVA), or added to RNA extraction buffer (RNeasy, Qiagen) and stored at −20° C. for subsequent RNA purification. Replicate microarrays were generated using RNA isolated from replicate experiments conducted on different days. Total RNA was isolated from cells using the RNeasy kit (Qiagen).
RNA was precipitated in 0.3 M sodium acetate (pH 5.2), 50 ng/ml glycogen, and 2.5 volumes of ethanol for one hour at −20° C. Samples were centrifuged and pellets were washed with cold 80% ethanol, dried, and resuspend in water. Double stranded cDNA was synthesized using a T7-(dT)24 first strand primer (Affymetrix, Inc., Santa Clara Calif.) and the SUPERSCRIPT CHOICE system (Invitrogen) according to the manufacturer's instructions. The final cDNA was extracted with an equal volume of 25:24:1 phenol:chloroform:isoamyl alcohol using a PHASE LOCK GEL insert (Brinkman, Inc., Westbury N.Y.). The aqueous phase was collected and cDNA was precipitated using 0.5 volumes of 7.5 M ammonium acetate and 2.5 volumes of ethanol. Alternatively, cDNA was purified using the GENECHIP sample cleanup module (Affymetrix) according to the manufacturer's instructions.
Biotin-labeled cRNA was synthesized from the cDNA in an in vitro […] (IVT) reaction using a BIOARRAY HighYield RNA transcript labeling kit (Enzo Diagnostics, Inc., Farmingdale N.Y.) according to the manufacturer's instructions. Final labeled product was purified and fragmented using the GENECHIP sample cleanup module (Affymetrix) according to the manufacturer's instructions.
Hybridization cocktail was prepared by bringing […] probe to […] in 1× hybridization buffer (100 mM MES, 1 M [Na^+], 20 mM EDTA, 0.01% Tween 20), 100 µg/ml herring sperm DNA, 500 µg/ml acetylated BSA, 0.03 nM contol oligo B2 (Affymetrix), and 1×GENECHIP eukaryotic hybridization control (Affymetrix). The cocktail was sequentially incubated at 99° C. for 5 minutes and 45° C. for 5 minutes, and then centrifuged for 5 minutes. The Human Genome U133A array (Affymetrix) was brought to room temperature and then prehybridized with 1× hybridization buffer at 45° C. for 10 minutes with rotation. The buffer was then replaced with […] hybridization cocktail and the array was hybridized for 16 hours at 45° C. at 60 rpm with counter balance. Following hybridization, arrays were washed once with 6×SSPE, 0.1% Tween 20, and then washed and stained using R-phycoerythrin-conjugated streptavidin (Molecular Probes, Eugene Oreg.), goat anti-streptavidin antibody (Vector Laboratories, Burlingame Calif.), and a GENECHIP Fluidics Station 400 instrument (Affymetrix) according to the manufacturer's micro_1v1 protocol (Affymetrix). Arrays were analyzed using a GENEARRAY scanner (Affymetrix) and Microarray Suite software (Affymetrix).
The Human Genome U133A array (Affymetrix) represents all sequences in the Human Unigene database build 133 (National Center for Biotechnology Information, Bethesda Md.), including approximately 14,500 well-characterized human genes.
RNA quality was monitored by capillary electrophoresis (Agilent Bioanalyzer). Hybridization cocktails were prepared as described (Affymetrix), and hybridized to Affymetrix human U133A arrays containing 22,283 probe sets. Array performance was analyzed with Affymetrix MicroArray Suite (MAS) software and individual probe sets were assigned “present”, “marginal, and “absent” calls according to software defaults. […]

A further experiment has as its system E-selectin. Briefly: Cell surface E-selectin (cell-based ELISA) in HUVEC pretreated with compound, then cytokines. More on the design: species or system human. The conditions noted are these: HUVEC pretreated 24 hours. On the procedure: HUVEC were treated with vehicle control or various concentrations of compound B or compound C for 24 hours. Cells were washed and then stimulated with either 1 ng/ml TNF-α, 1 ng/ml IL-1β, or a combination of 1 ng/ml each of TNF-α, IL-1β, and IFN-γ for 4 hours. Cell surface expression of E-selectin was measured by cell-based ELISA.

The source of these data is patent publication US11680047B2, “Enhanced erythropoiesis and iron metabolism” (FibroGen, Inc., priority 2003, dated 2023).

`O=C(O)CNC(=O)c1nc(Cl)c2ccccc2c1O` [Compound A, [(1-Chloro-4-hydroxy-isoquinoline-3-carbonyl)-amino]-acetic acid]: the hematocrit levels result in the experiment on rat model of ACD (5 days after initiation of treatment) is recorded as “approximately 37%”; with rat model of ACD (following a second dosing) it was “approximately 40%”. Besides, the hemoglobin levels result is “increased hemoglobin levels in anemic animals” with rat model of ACD (as early as 5 days (day 39)) and “reaching a level comparable to control non-anemic animals” with rat model of ACD (day 49). Besides, the Reticulocyte levels result in the experiment with rat model of ACD (day 39) is “approximately 10 % of red cell counts”. For the same molecule, the “red blood cell count” value with rat model of ACD (from day 39) is on record as “increased red blood cell count in anemic animals”. Moreover, the mean corpuscular volume result with rat model of ACD (from day 39, vs non-treated anemic animals) was “increased mean corpuscular volume”. Besides, in the experiment on rat model of ACD (vs non-treated anemic animals), the “mean corpuscular hemoglobin levels” value is reported as “increased mean corpuscular hemoglobin levels”.

With `O=C(O)CNC(=O)c1ncc2cc(Oc3ccccc3)ccc2c1O` [Compound B, [(4-Hydroxy-7-phenoxy-isoquinoline-3-carbonyl)-amino]-acetic acid], the “Transferrin Receptor (TFR2) fold-increase in mRNA levels above control” value in experiment [1] (1 hr) is on record as 0.575 fold; in experiment [1] (3 hr) it was 0.558 fold; in experiment [1] (6 hr), 0.822 fold; in experiment [1] (12 hr) it was 1.253 fold; in experiment [1] (24 hr), 2.522 fold; in experiment [1] (48 hr), 4.169 fold. Besides, in the experiment with E-selectin (then 1 ng/ml TNF-α or 1 ng/ml IL-1β for 4 hours), the “induction of cell surface E-selectin expression” value was “inhibited the induction of cell surface E-selectin expression”. Besides, the “cell surface E-selectin expression” value in the experiment with E-selectin (then TNF-α, IL-1β and IFN-γ, 1 ng/ml each, 4 hours) was “decreased E-selectin expression”.
